Several values for one entry are separate records, joined by “and”; a condition that tells them apart may be missing. Identical values can stand only once. Entries after “also recorded” stand apart in the source; their conditions may differ.
Key:
Type in all cases: in vivo, human
[1] = test system: intermediate-2 or high-risk myelofibrosis (MF) relapsed/refractory to JAK inhibitor; assay: Phase 2 study: spleen response (spleen volume reduction, SVR, by MRI at week 24); conditions: for subjects with SVR >= 20% at week 24, No / subjects with SVR >= 20% at week 24, Yes / subjects with SVR >= 35% at wk 24 by IRC, No / subjects with SVR >= 35% at wk 24 by IRC, Yes / subjects with SVR >= 20% at Week 24 by IRC, No / subjects with SVR >= 20% at Week 24 by IRC, Yes / subjects with SVR >= 35% at Week 24 by IRC, Yes / subjects with SVR >= 35% at week 24 by IRC, No: 9.4 mg/kg
Source text: (§1) Diagnosis of primary, post-essential thrombocythemia, or post-polycythemia vera MF was required; other eligibility criteria included measurable splenomegaly (by magnetic resonance imaging [MRI]), active MF-related systemic symptoms and platelet count ≥75×10^9/L. Primary endpoints were: spleen response rate (% achieving ≥35% spleen volume reduction [SVR] by MRI at week 24); and symptom response rate (% achieving ≥50% reduction in total symptom score [TSS] per the Myelofibrosis Symptom Assessment Form (MFSAF) v2 at week 24). Key secondary endpoints included safety, overall survival (OS), treatment response, molecular response, and pharmacokinetic and pharmacodynamic relationships.

[2] = test system: intermediate-2 or high-risk myelofibrosis (MF) relapsed/refractory to JAK inhibitor; assay: Phase 2 study: symptom response (total symptom score, TSS, MFSAF v2 at week 24); conditions: for subjects with TSS >= 50% decrease at week 24, No / subjects with TSS >= 50% decrease at week 24, Yes: 9.4 mg/kg
Source text: as §1

[3] = test system: intermediate-2 or high-risk myelofibrosis (MF) relapsed/refractory to JAK inhibitor; assay: Phase 2 study: overall survival (OS); conditions: 9.4 mg/kg arm
Source text: as §1

[4] = HMR with 1 Mutation, 21 subjects
[5] = HMR with >1 Mutation, 14 subjects
[6] = all patients, first clinical cutoff

Substance: DNA, d(3′-amino-3′-deoxy-P-thio) (T-A-G-G-G-T-T-A-G-A-C-A-A), 5′-[O-[2-hydroxy-3-(hexadecanoylamino)propyl] phosphorothioate], sodium salt (1:13) [imetelstat sodium]
- spleen response rate (>=35% SVR by MRI at week 24) ([1]; 9.4 mg/kg IV every 3 weeks arm, all patients (n = 59)): 10.2%
- rate of response (SVR or TSS), LMR or HMR with only 1 mutation compared to HMR with more than 1 mutations ([1]; 9.4 mg/kg arm, week 24): higher rate of response
- rate of response (SVR or TSS), TN group compared to Non-TN group ([1]; 9.4 mg/kg arm, week 24): higher rate of response
- subjects with SVR >= 20% at week 24, No [1, 4]: 15 (71.4%)
- subjects with SVR >= 20% at week 24, Yes [1, 4]: 6 (28.6%)
- subjects with SVR >= 35% at wk 24 by IRC, No [1, 4]: 17 (81%)
- subjects with SVR >= 35% at wk 24 by IRC, Yes [1, 4]: 4 (19%)
- subjects with SVR >= 20% at week 24, No [1, 5]: 13 (92.9%)
- subjects with SVR >= 20% at week 24, Yes [1, 5]: 1 (7.1%)
- subjects with SVR >= 35% at wk 24 by IRC, Yes [1, 5]: 0 (0%)
- subjects with SVR >= 20% at week 24, No ([1]; LMR, No Mutation, 22 subjects): 17 (77.3%)
- subjects with SVR >= 20% at week 24, Yes ([1]; LMR, No Mutation, 22 subjects): 5 (22.7%)
- subjects with SVR >= 35% at wk 24 by IRC, No ([1]; LMR, No Mutation, 22 subjects): 20 (90.9%)
- subjects with SVR >= 35% at wk 24 by IRC, Yes ([1]; LMR, No Mutation, 22 subjects): 2 (9.1%)
- subjects with SVR >= 20% at Week 24 by IRC, No ([1]; Non-TN, 41 subjects): 34 (82.9%)
- subjects with SVR >= 20% at Week 24 by IRC, Yes ([1]; Non-TN, 41 subjects): 7 (17.1%)
- subjects with SVR >= 35% at Week 24 by IRC, Yes ([1]; Non-TN, 41 subjects): 3 (7.3%)
- subjects with SVR >= 35% at week 24 by IRC, No ([1]; Non-TN, 41 subjects): 38 (92.7%)
- subjects with SVR >= 20% at Week 24 by IRC, No ([1]; TN, 16 subjects): 11 (68.75)) %
- subjects with SVR >= 20% at Week 24 by IRC, Yes ([1]; TN, 16 subjects): 5 (31.25%)
- subjects with SVR >= 35% at Week 24 by IRC, Yes ([1]; TN, 16 subjects): 3 (18.75%)
- subjects with SVR >= 35% at week 24 by IRC, No ([1]; TN, 16 subjects): 13 (81.25%)
- spleen response rate, comparison by HMR mutation ([1]; patients with 1 HMR mutation (ASXL1, EZH2, SRSF2, or IDH1/2)): higher
- symptom response rate (TSS reduction >=50% at week 24) ([2]; 9.4 mg/kg arm, all patients (n = 59)): 32%
- subjects with TSS >= 50% decrease at week 24, No [2, 4]: 14 (66.7%)
- subjects with TSS >= 50% decrease at week 24, Yes [2, 4]: 7 (33.3%)
- subjects with TSS >= 50% decrease at week 24, No [2, 5]: 11 (78.6%)
- subjects with TSS >= 50% decrease at week 24, Yes [2, 5]: 3 (21.4%)
- subjects with TSS >= 50% decrease at week 24, No ([2]; LMR, No Mutation, 22 subjects): 14 (63.6%)
- subjects with TSS >= 50% decrease at week 24, Yes ([2]; LMR, No Mutation, 22 subjects): 8 (36.4%)
- subjects with TSS >= 50% decrease at week 24, No ([2]; Non-TN, 41 subjects): 31 (75.6%)
- subjects with TSS >= 50% decrease at week 24, Yes ([2]; Non-TN, 41 subjects): 10 (24.4%)
- subjects with TSS >= 50% decrease at week 24, No ([2]; TN, 16 subjects): 8 (50%)
- subjects with TSS >= 50% decrease at week 24, Yes ([2]; TN, 16 subjects): 8 (50%)
- Median survival, months (95% CI) ([3]; Non-TN subjects, first clinical cutoff): 23.6 months and 23.6 (20.7, NE) months
- OS HR (95% CI) ([3]; Non-TN vs TN, first clinical cutoff): 2.76 (0.81, 9.46)
- Death rate % ([3]; Non-TN, first clinical cutoff): 41.5%
- Median survival, months (95% CI) ([3]; TN subjects, first clinical cutoff): has not been reached; also recorded: not estimable; also recorded: NE (23.2, NE)
- Death rate % ([3]; TN, first clinical cutoff): 18.8%
- 18-month survival rate [3, 6]: 76.7%
- median OS [3, 6]: has not been reached
- median OS ([3]; all patients, second clinical cutoff): 29.9 months
- death rate, TN group compared to Non-TN group ([3]; first clinical cutoff): lower death rate
- death rate, TN group compared to Non-TN group ([3]; second clinical cutoff): lower death rate

Reference: patent publication US20200063214A1, “METHODS OF IDENTIFYING PATIENTS LIKELY TO BENEFIT FROM TREATMENT WITH A TELOMERASE INHIBITOR” (Geron Corporation, priority 2018, published 2020)
